Laboratory results published in publication PMC12410356 (International Journal for Parasitology: Drugs and Drug …, 2025).

Experiments:
[1] = tested on: E. multilocularis metacestode vesicles; experiment: Phosphoglucose isomerase (PGI) release assay (damage-marker release) on metacestode vesicles; format: cell-based, Echinococcus multilocularis; conditions: 10 μM; for PGI d5 (relative PGI release): 5 days; for PGI d12 (relative PGI release): 12 days
Method: In order to quantify the drug-induced damage on whole metacestode vesicles, phosphoglucose isomerase (PGI) assay was performed as described previously ([Stadelmann et al., 2010]) with few adaptations published recently ([Kaethner et al., 2023]). In short, 8 to 12 weeks-old metacestode vesicles were purified using 2 % sucrose with subsequent washes in PBS. Metacestode vesicles were diluted in two volumes of DMEM without phenol red containing penicillin (100 U/mL) and streptomycin (100 μg/mL). […] 0.1 % DMSO was used as a negative solvent control and 0.1 % Triton X-100 was used as a positive total damage control. Metacestode vesicles were incubated under a humid, 5 % CO2 atmosphere at 37 °C. After five and twelve days, supernatant was taken and pictures were made using a Nikon SMZ18 stereo microscope (Nikon, Basel, Switzerland) at 7.5 × magnification. PGI activity in the supernatants was measured on a HIDEX Sense microplate reader (Hidex, Turku, Finland). The corresponding values of the DMSO controls were subtracted from the values of the compounds and then PGI activity was calculated relative to 0.1 % Triton X-100. […] IC50 values were calculated applying the 3 parameter Weibull type 1 in R for each of the three independent experiments ([Ritler et al., 2020]).

[2] = tested on: E. multilocularis metacestode vesicles; experiment: Metacestode vesicle viability assay (ATP, CellTiter-Glo); format: cell-based, Echinococcus multilocularis
Method: Viability was assessed after 12 days using the same metacestode vesicles as for the PGI release assay. Triton X-100 was added to each well to a final concentration of 0.1 %. Subsequently the metacestode vesicles were broken mechanically and 50 μL of the supernatant was mixed with 50 μL of CellTiter-Glo® buffer (Promega, Dübendorf, Switzerland). Measurements were performed on a HIDEX Sense microplate reader.

[3] = overview screen, singlets, relative to 0.1 % Triton X-100, DMSO subtracted
[4] = overview screen, 10 μM, singlets, 12 days, relative to DMSO control
[5] = confirmation screen, triplicates, mean

Compound	PGI d5 (relative PGI release) [1, 3]	PGI d12 (relative PGI release) [1, 3]	Viability d12 (relative viability) [2, 4]	Viability d12 (relative viability) ([2]; 10 µM)	PGI d5 (relative PGI release) [1, 5]	PGI d12 (relative PGI release) [1, 5]	Viability d12 (relative viability) ([2]; confirmation screen, 10 μM, triplicates, mean, 12 days)
CN(C)CC(=O)Nc1ccc2[nH]c(=O)c3ccccc3c2c1 [MMV1580480]	-0.09241%	-0.9318%	169.884%	–	–	–	–
Cc1cc(-c2ccccc2)c(C(=O)C(=O)Nc2ccc(N3CCN(c4ncc(F)cn4)CC3)cc2)n1C [MMV1782354]	1.821%	-11.1929%	36.0707%	–	–	–	–
CC[C@H]1OC(=O)[C@H](C)[C@@H](O[C@H]2C[C@@](C)(OC)[C@@H](O)[C@H](C)O2)[C@H](C)[C@@H](O[C@@H]2O[C@H](C)C[C@H](N(C)C)[C@H]2O)[C@](C)(O)C[C@@H](C)C(=O)[C@H](C)[C@@H](O)[C@]1(C)O [MMV003137]	1.971%	-21.4001%	63.8752%	–	–	–	–
CCc1ccc(C2CC(C(F)(F)F)n3ncc(C(=O)NCc4ccc(OC)cc4)c3N2)cc1 (stereo not drawn) [MMV831201]	-0.786%	-0.2956%	124.843%	–	–	–	–
O=[N+]([O-])c1cn2c(n1)OC[C@@H](OCc1ccc(OC(F)(F)F)cc1)C2 [MMV688755]	-1.0977%	-12.4687%	91.4293%	–	–	–	–
Nc1cnn(C2OC(CO)C(O)C2O)c(=O)n1 (stereo not drawn) [MMV1580495]	0.6182%	10.061%	84.6299%	–	–	–	–
Cc1[nH]c2ccccc2c1CC(=O)N[C@@H](Cc1ccccc1)C(=O)N(C)c1ccccc1 [MMV1580798]	0.141%	-4.531%	204.25%	–	–	–	–
Nc1ccc2oc(=O)ccc2c1I [MMV1581378]	0.09331%	-19.2105%	90.9948%	–	–	–	–
CCc1cc(O)c(Oc2cccnc2N)cc1F [MMV1580854]	-1.596%	-13.7258%	45.6729%	–	–	–	–
C(=C\c1nc2ccccc2[nH]1)/c1ccc2c(c1)OCO2 [MMV1582495]	-1.5423%	-10.1943%	98.8605%	–	–	–	–
CC(=O)N1c2ccccc2NC2=C(C(=O)CC(C)(C)C2)C1c1ccc(OCc2ccccc2)cc1 (stereo not drawn) [MMV1580503]	1.18%	-18.9728%	72.2027%	–	–	–	–
CONC(=N)c1ccc(-c2ccc(-c3ccc(C(=N)NOC)cc3)o2)cc1 [MMV000059]	-1.411%	-24.9567%	226.694%	–	–	–	–
NC(=O)C(c1ccccc1)(c1ccccc1)[C@H]1CCCN(CCc2ccc3c(c2)CCO3)C1 [MMV1782412]	1.533%	2.087%	220.792%	–	–	–	–
CN(C)CCNC(=O)c1cccc2cccnc12 [MMV811071]	0.8254%	33.0305%	78.9047%	–	–	–	–
CCN(CC)S(=O)(=O)c1ccc(Cl)c(C(=O)Nc2sc3c(c2C#N)CCCC3)c1 [MMV1634384]	0.5897%	3.142%	106.793%	–	–	–	–
CCc1oc2ccccc2c1C(=O)c1ccc(O)cc1 [MMV1578558]	-2.405%	11.8922%	72.3877%	–	–	–	–
Nc1nc2c(Cc3cccnc3)c[nH]c2c(=O)[nH]1 [MMV1782355]	-0.9111%	0.236%	81.2481%	–	–	–	–
CN1c2ccc(Cl)cc2N(c2ccccc2)C(=O)c2cn(Cc3ccc(CN4CCOCC4)cc3)nc21 [MMV1782222]	-0.005582%	0.3517%	123.597%	–	–	–	–
O=C(NCc1ccccc1Cl)c1cnc2ccccc2n1 [MMV1230557]	-1.462%	-11.048%	58.5314%	–	–	–	–
NC[C@H]1OB(O)c2c(OCCCO)cccc21 [MMV1578566]	0.6057%	-3.009%	7.765%	–	–	–	–

Compound	PGI d5 (relative PGI release) [1, 3]	PGI d12 (relative PGI release) [1, 3]	Viability d12 (relative viability) [2, 4]	Viability d12 (relative viability) ([2]; 10 µM)	PGI d5 (relative PGI release) [1, 5]	PGI d12 (relative PGI release) [1, 5]	Viability d12 (relative viability) ([2]; confirmation screen, 10 μM, triplicates, mean, 12 days)
COc1cc(NCc2ccc3nc(N)nc(N)c3c2C)cc(OC)c1OC [MMV1580173]	-1.642%	-23.9013%	–	66.8811%	–	–	–
Cl.Cl.NCCCc1ccccc1C(=O)Nc1ncc([N+](=O)O)s1 [MMV1579786]	-0.3411%	-16.376%	116.729%	–	–	–	–
CCc1nc2ccccn2c1C(=O)NCc1ccccc1 [MMV1663457]	-2.34%	-12.7903%	46.6749%	–	–	–	–
Nc1nnnn1CCOc1c2[nH]c3ccc(Cl)cc3c2cc2c1[nH]c1ccc(Cl)cc12 [MMV1633966]	3.53%	16.3673%	104.455%	–	–	–	–
CC(C)(C)c1ccc(C(=O)NC(=O)N2CCCc3ccccc32)cc1 [MMV1782212]	-2.428%	-24.6748%	85.4175%	–	–	–	–
CC(C)C(=O)N[C@H]1[C@H]([C@H](O)[C@H](O)CO)OC(C(=O)O)=C[C@@H]1N=[N+]=[N-] [MMV1782111]	-0.6196%	0.1424%	85.5263%	–	–	–	–
O=S(=O)(NCB(O)O)c1ccc(-c2nnn[nH]2)cc1C(F)(F)F [MMV1782411]	-0.527%	-17.35%	79.3081%	–	–	–	–
COc1ccc(C[C@@H](C)[C@@H](C)Cc2ccc(OC)c(OC)c2)cc1OC [MMV1581036]	0.565%	2.335%	132.486%	–	–	–	–
CCNC(=O)Nc1cn2c(-c3ncc(CC)cn3)cc(-c3cccnc3)cc2n1 [MMV1782403]	-2.559%	16.0574%	142.751%	–	–	–	–
OB1OCc2c1ccc(Cl)c2F [MMV1782226]	-2.405%	-26.1495%	39.4941%	–	–	–	–
Cc1ccn2c(C(=O)NCc3ccccc3)c(C)nc2c1 [MMV1579847]	-1.164%	-2.526%	87.8278%	–	–	–	–
c1ccc(Cn2c(-c3ccccn3)nc3ccccc32)cc1 [MMV1578886]	-1.473%	58.1597%	16.9499%	–	-0.18%	-0.24%	94.29%
Nc1ccc(-c2nc3cc(C(F)(F)F)ccc3n2C23CC4CC(CC(C4)C2)C3)cc1 [MMV1634385]	1.378%	1.206%	100.869%	–	–	–	–
Nc1nc(N)c2c(Sc3ccccc3)cccc2n1 [MMV021759]	-5.79%	-12.5973%	37.4067%	–	–	–	–
NC(=O)c1ccc(I)c([N+](=O)[O-])c1 [MMV1581035]	1.539%	-0.2873%	321.911%	–	–	–	–
CC(C)Oc1ccc(-c2nc(-c3cccc4c3CC[C@@H]4NCCO)no2)cc1C#N [MMV1580492]	-0.3732%	-18.7012%	55.483%	–	–	–	–
COc1nc2ccc(Br)cc2cc1[C@@H](c1ccccc1)[C@@](O)(CCN(C)C)c1cccc2ccccc12 [MMV689758]	-2.925%	-4.755%	111.826%	–	–	–	–
CNC(=O)C1O[C@@H](n2cnc3c(NCc4cccc(I)c4)nc(Cl)nc32)[C@H](O)[C@@H]1O (stereo partly drawn) [MMV1593514]	-0.4087%	0.1534%	–	79.1378%	–	–	–
CN(C)[C@@H]1C(=O)C(C(N)=O)=C(O)[C@@]2(O)C(=O)C3=C(O)c4c(O)c(NC(=O)CN5CCCC5)cc(F)c4C[C@H]3C[C@@H]12.Cl.Cl [MMV1578574]	-1.676%	-12.2407%	18.1189%	–	–	–	–
O=S(=O)(Nc1ccc(O)cc1)c1cccc2cccnc12 [MMV251679]	0.1251%	-17.8593%	83.9227%	–	–	–	–
